Reference: ChEMBL document CHEMBL3994622, “Design and synthesis of new RAF kinase-inhibiting antiproliferative quinoline derivatives. Part 2: Diarylurea derivatives” (Eur J Med Chem, 2017)

What was measured:
CCRF-CEM = experiment: Growth inhibition of human CCRF-CEM cells assessed as cell growth at 10 uM incubated for 48 hrs by sulforhodamine B assay relative to control; type: functional; details: read-out: Activity
MOLT-4 = experiment: Growth inhibition of human MOLT4 cells assessed as cell growth at 10 uM incubated for 48 hrs by sulforhodamine B assay relative to control; type: functional; details: MOLT-4, 48 h, read-out: Activity
RPMI-8226 = experiment: Growth inhibition of human RPMI8226 cells assessed as cell growth at 10 uM incubated for 48 hrs by sulforhodamine B assay relative to control; type: functional; details: RPMI-8226, 48 h, read-out: Activity
A549 = experiment: Growth inhibition of human A549/ATCC cells assessed as cell growth at 10 uM incubated for 48 hrs by sulforhodamine B assay relative to control; type: functional; details: A549, 48 h, read-out: Activity
EKVX = experiment: Growth inhibition of human EKVX cells assessed as cell growth at 10 uM incubated for 48 hrs by sulforhodamine B assay relative to control; type: functional; details: read-out: Activity
HOP-92 = experiment: Growth inhibition of human HOP92 cells assessed as cell growth at 10 uM incubated for 48 hrs by sulforhodamine B assay relative to control; type: functional; details: HOP-92, 48 h, read-out: Activity
COLO 205 = experiment: Growth inhibition of human COLO205 cells assessed as cell growth at 10 uM incubated for 48 hrs by sulforhodamine B assay relative to control; type: functional; details: COLO 205, 48 h, read-out: Activity
HCT-15 = experiment: Growth inhibition of human HCT15 cells assessed as cell growth at 10 uM incubated for 48 hrs by sulforhodamine B assay relative to control; type: functional; details: HCT-15, 48 h, read-out: Activity
KM12 = experiment: Growth inhibition of human KM12 cells assessed as cell growth at 10 uM incubated for 48 hrs by sulforhodamine B assay relative to control; type: functional; details: KM12, 48 h, read-out: Activity
SW-620 = experiment: Growth inhibition of human SW620 cells assessed as cell growth at 10 uM incubated for 48 hrs by sulforhodamine B assay relative to control; type: functional; details: SW-620, 48 h, read-out: Activity
SF-268 = experiment: Growth inhibition of human SF268 cells assessed as cell growth at 10 uM incubated for 48 hrs by sulforhodamine B assay relative to control; type: functional; details: SF-268, 48 h, read-out: Activity
SF-295 [1] = experiment: Growth inhibition of human SF295 cells assessed as cell growth at 10 uM incubated for 48 hrs by sulforhodamine B assay relative to control; type: functional; details: SF-295, 48 h, read-out: Activity
SNB-19 = experiment: Growth inhibition of human SNB19 cells assessed as cell growth at 10 uM incubated for 48 hrs by sulforhodamine B assay relative to control; type: functional; details: SNB-19, 48 h, read-out: Activity
SNB-75 = experiment: Growth inhibition of human SNB75 cells assessed as cell growth at 10 uM incubated for 48 hrs by sulforhodamine B assay relative to control; type: functional; details: SNB-75, 48 h, read-out: Activity
U-251 = experiment: Growth inhibition of human U251 cells assessed as cell growth at 10 uM incubated for 48 hrs by sulforhodamine B assay relative to control; type: functional; details: U-251, 48 h, read-out: Activity
LOX IMVI = experiment: Growth inhibition of human LOXIMVI cells assessed as cell growth at 10 uM incubated for 48 hrs by sulforhodamine B assay relative to control; type: functional; details: read-out: Activity
M14 = experiment: Growth inhibition of human M14 cells assessed as cell growth at 10 uM incubated for 48 hrs by sulforhodamine B assay relative to control; type: functional; details: M14, 48 h, read-out: Activity
SK-MEL-2 = experiment: Growth inhibition of human SK-MEL-2 cells assessed as cell growth at 10 uM incubated for 48 hrs by sulforhodamine B assay relative to control; type: functional; details: SK-MEL-2, 48 h, read-out: Activity
UACC-62 = experiment: Growth inhibition of human UACC62 cells assessed as cell growth at 10 uM incubated for 48 hrs by sulforhodamine B assay relative to control; type: functional; details: UACC-62, 48 h, read-out: Activity
NCI/ADR-RES = experiment: Growth inhibition of human NCI/ADR-RES cells assessed as cell growth at 10 uM incubated for 48 hrs by sulforhodamine B assay relative to control; type: functional; details: read-out: Activity
786-0 = experiment: Growth inhibition of human 786-0 cells assessed as cell growth at 10 uM incubated for 48 hrs by sulforhodamine B assay relative to control; type: functional; details: 786-0, 48 h, read-out: Activity
A498 = experiment: Growth inhibition of human A498 cells assessed as cell growth at 10 uM incubated for 48 hrs by sulforhodamine B assay relative to control; type: functional; details: A498, 48 h, read-out: Activity
RXF 393 = experiment: Growth inhibition of human RXF393 cells assessed as cell growth at 10 uM incubated for 48 hrs by sulforhodamine B assay relative to control; type: functional; details: RXF 393, 48 h, read-out: Activity
DU-145 [2] = experiment: Growth inhibition of human DU145 cells assessed as cell growth at 10 uM incubated for 48 hrs by sulforhodamine B assay relative to control; type: functional; details: DU-145, 48 h, read-out: Activity
MDA-MB-231 = experiment: Growth inhibition of human MDA-MB-231 cells assessed as cell growth at 10 uM incubated for 48 hrs by sulforhodamine B assay relative to control; type: functional; details: MDA-MB-231, 48 h, read-out: Activity
HOP-62 = experiment: Growth inhibition of human HOP62 cells incubated for 48 hrs by sulforhodamine B assay; type: functional; details: HOP-62, 48 h; for CC50: read-out: LC50 (the source's name)
NCI-H522 = experiment: Growth inhibition of human NCI-H522 cells incubated for 48 hrs by sulforhodamine B assay; type: functional; details: NCI-H522, 48 h; for CC50: read-out: LC50 (the source's name)
SF-295 [3] = experiment: Growth inhibition of human SF295 cells incubated for 48 hrs by sulforhodamine B assay; type: functional; details: SF-295, 48 h; for CC50: read-out: LC50 (the source's name)
UACC-257 = experiment: Growth inhibition of human UACC257 cells incubated for 48 hrs by sulforhodamine B assay; type: functional; details: UACC-257, 48 h; for CC50: read-out: LC50 (the source's name)
OVCAR-5 = experiment: Growth inhibition of human OVCAR5 cells incubated for 48 hrs by sulforhodamine B assay; type: functional; details: OVCAR-5, 48 h; for CC50: read-out: LC50 (the source's name)
TK-10 = experiment: Growth inhibition of human TK10 cells incubated for 48 hrs by sulforhodamine B assay; type: functional; details: TK-10, 48 h; for CC50: read-out: LC50 (the source's name)
DU-145 [4] = experiment: Growth inhibition of human DU145 cells incubated for 48 hrs by sulforhodamine B assay; type: functional; details: DU-145, 48 h; for CC50: read-out: LC50 (the source's name)
[5] = molecular target: RAF proto-oncogene serine/threonine-protein kinase (Homo sapiens, UniProt P04049); experiment: Inhibition of human c-RAF using MEK1 as substrate in presence of [33P]ATP by Hotspot assay
RAF proto-oncogene serine/threonine-protein kinase, sequence (P04049 whole entry): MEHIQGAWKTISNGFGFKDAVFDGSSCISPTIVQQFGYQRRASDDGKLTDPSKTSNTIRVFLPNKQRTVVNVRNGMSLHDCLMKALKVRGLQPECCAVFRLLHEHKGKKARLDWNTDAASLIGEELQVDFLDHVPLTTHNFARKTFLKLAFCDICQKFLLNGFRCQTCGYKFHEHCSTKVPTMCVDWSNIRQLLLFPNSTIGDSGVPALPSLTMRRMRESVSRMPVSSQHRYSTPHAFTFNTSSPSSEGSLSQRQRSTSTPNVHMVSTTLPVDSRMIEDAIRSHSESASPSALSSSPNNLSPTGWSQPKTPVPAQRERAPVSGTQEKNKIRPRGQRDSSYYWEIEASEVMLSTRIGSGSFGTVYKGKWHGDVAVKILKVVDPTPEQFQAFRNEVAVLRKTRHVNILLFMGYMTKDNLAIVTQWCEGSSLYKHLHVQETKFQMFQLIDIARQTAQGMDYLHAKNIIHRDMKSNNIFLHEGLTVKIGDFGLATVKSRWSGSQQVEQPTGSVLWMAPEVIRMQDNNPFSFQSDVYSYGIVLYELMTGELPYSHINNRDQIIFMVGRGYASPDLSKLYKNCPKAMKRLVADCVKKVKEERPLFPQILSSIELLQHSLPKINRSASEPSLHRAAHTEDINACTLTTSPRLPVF

`COc1cc2cc(Oc3ccc(NC(=O)Nc4ccc(Cl)c(C(F)(F)F)c4)cc3)c(C)nc2cc1OC` showed a growth at 10 µM (CCRF-CEM) of -17.6%, a growth at 10 µM (MOLT-4) of -27.9% and a growth at 10 µM (RPMI-8226) of -26.4%. It also gave a growth at 10 µM (A549) of -17.2%, a growth at 10 µM (EKVX) of 8.83% and a growth at 10 µM (HOP-92) of -22.3%. For the same compound, the growth at 10 µM (COLO 205) was -49.5%, the growth at 10 µM (HCT-15) was 1.27% and the growth at 10 µM (KM12) was -16.4%. For the same compound, the growth at 10 µM (SW-620) was 7.51%, the growth at 10 µM (SF-268) was -10.2% and the growth at 10 µM (SF-295 [1]) was -70.9%. For the same compound, the growth at 10 µM (SNB-19) was 23.7%, the growth at 10 µM (SNB-75) was 12.4% and the growth at 10 µM (U-251) was -80.4%. It also gave a growth at 10 µM (LOX IMVI) of -81.3%, a growth at 10 µM (M14) of -73.7% and a growth at 10 µM (SK-MEL-2) of -49.8%. For the same compound, the growth at 10 µM (UACC-62) was -51.5%, the growth at 10 µM (NCI/ADR-RES) was 2.01% and the growth at 10 µM (786-0) was -21.1%. The growth at 10 µM (A498) was 10.4%, the growth at 10 µM (RXF 393) was -33.4% and the growth at 10 µM (DU-145 [2]) was 12.7%. It also gave a growth at 10 µM (MDA-MB-231) of -50.6%, a GI50 (HOP-62) of 1.3 µM and a TGI (HOP-62) of 5.32 µM. For the same compound, the CC50 (HOP-62) was 13.7 µM, the GI50 (NCI-H522) was 0.773 µM and the TGI (NCI-H522) was 2.65 µM. For the same compound, the CC50 (NCI-H522) was 12.2 µM, the GI50 (SF-295 [3]) was 0.899 to 0.9 µM and the TGI (SF-295 [3]) was 2.91 µM. It also gave a CC50 (SF-295 [3]) of 22.2 µM, a GI50 (UACC-257) of 0.71 µM and a TGI (UACC-257) of 2.36 µM. For the same compound, the CC50 (UACC-257) was 19.6 µM, the GI50 (OVCAR-5) was 1.93 µM and the TGI (OVCAR-5) was 6.22 µM. For the same compound, the CC50 (OVCAR-5) was 17.4 µM, the GI50 (TK-10) was 1.32 µM and the TGI (TK-10) was 6.19 µM. For the same compound, the CC50 (TK-10) was greater than 32.5 µM, the GI50 (DU-145 [4]) was 1.24 µM and the TGI (DU-145 [4]) was 5.11 µM. The CC50 (DU-145 [4]) was 19.1 µM and the IC50 [5] was 0.1 µM.
With `COc1cc2cc(Oc3ccc(NC(=O)Nc4ccc(Cl)c(Cl)c4)cc3)c(C)nc2cc1OC` the growth at 10 µM (CCRF-CEM) was 13.3%, the growth at 10 µM (MOLT-4) was 3.69% and the growth at 10 µM (RPMI-8226) was 4.2%. For the same compound, the growth at 10 µM (A549) was 4.35%, the growth at 10 µM (EKVX) was 21% and the growth at 10 µM (HOP-92) was -9.31%. The growth at 10 µM (COLO 205) was 4.03%, the growth at 10 µM (HCT-15) was 18.9% and the growth at 10 µM (KM12) was 13.9%. For the same compound, the growth at 10 µM (SW-620) was 23.4%, the growth at 10 µM (SF-268) was 43.7% and the growth at 10 µM (SF-295 [1]) was 0.69%. It also gave a growth at 10 µM (SNB-19) of 28.6%, a growth at 10 µM (SNB-75) of 22.4% and a growth at 10 µM (U-251) of -32.3%. It also gave a growth at 10 µM (LOX IMVI) of 23.1%, a growth at 10 µM (M14) of 25.8% and a growth at 10 µM (SK-MEL-2) of -7.82%. The growth at 10 µM (UACC-62) was 20.4%, the growth at 10 µM (NCI/ADR-RES) was 17.1% and the growth at 10 µM (786-0) was 20.3%. The growth at 10 µM (A498) was 35.8%, the growth at 10 µM (RXF 393) was 22.3% and the growth at 10 µM (DU-145 [2]) was 24.8%. For the same compound, the growth at 10 µM (MDA-MB-231) was 47.8%, the GI50 (HOP-62) was 3.55 µM and the TGI (HOP-62) was 11.9 µM. It also gave a CC50 (HOP-62) of 34.4 µM, a GI50 (NCI-H522) of 1.74 µM and a TGI (NCI-H522) of 8.43 µM. The CC50 (NCI-H522) was 59.5 µM, the GI50 (SF-295 [3]) was 1.96 µM and the TGI (SF-295 [3]) was 6.08 µM. For the same compound, the CC50 (SF-295 [3]) was 67.7 µM, the GI50 (UACC-257) was 2.31 µM and the TGI (UACC-257) was 6.28 µM. For the same compound, the CC50 (UACC-257) was 24.4 µM, the GI50 (OVCAR-5) was 10.1 µM and the TGI (OVCAR-5) was 34.3 µM. The CC50 (OVCAR-5) was greater than 100 µM, the GI50 (TK-10) was 3.46 µM and the TGI (TK-10) was 9.18 µM. The CC50 (TK-10) was 43.3 µM, the GI50 (DU-145 [4]) was 4.27 µM and the TGI (DU-145 [4]) was 17.1 µM. It also gave a CC50 (DU-145 [4]) of 68.4 µM and an IC50 [5] of 0.22 µM.
